Results from PubChem BioAssay (NCI).
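In this assay, cells in 96-well plates receive the compound at five concentrations for 48 hours. Endpoints are linearly interpolated between the surrounding concentrations. At the GI50, growth is halved. TGI denotes the concentration required for complete inhibition of growth.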

Legend:
Assay in all cases: NCI-60 cell line screen, 48 h
[1] = test system: SK-MEL-28 melanoma
[2] = test system: U251 CNS
[3] = test system: SR leukemia
[4] = test system: COLO 205 colon
[5] = test system: HCT-15 colon
[6] = test system: SN12C renal
[7] = test system: CAKI-1 renal
[8] = test system: DU-145 prostate
[9] = test system: SNB-19 CNS
[10] = test system: HCC-2998 colon
[11] = test system: SW-620 colon
[12] = test system: K-562 leukemia
[13] = test system: MDA-MB-231 breast
[14] = test system: MDA-MB-435
[15] = test system: UACC-62 melanoma
[16] = test system: EKVX NSCLC
[17] = test system: SK-MEL-2 melanoma
[18] = test system: SK-MEL-5 melanoma
[19] = test system: OVCAR-8 ovarian
[20] = test system: 786-0 renal
[21] = test system: MDA-N
[22] = test system: MOLT-4 leukemia
[23] = test system: OVCAR-5 ovarian
[24] = test system: MCF7 breast
[25] = test system: SF-268 CNS
[26] = test system: TK-10 renal
[27] = test system: SNB-75 CNS
[28] = test system: HOP-92 NSCLC
[29] = test system: RXF 393 renal
[30] = test system: PC-3 prostate
[31] = test system: UACC-257 melanoma
[32] = test system: CCRF-CEM leukemia
[33] = test system: NCI-H23 lung
[34] = test system: HS 578T breast
[35] = test system: ACHN renal
[36] = test system: OVCAR-4 ovarian
[37] = test system: T-47D breast
[38] = test system: HT29 colon
[39] = test system: LOX IMVI melanoma
[40] = test system: M14 melanoma
[41] = test system: SK-OV-3 ovarian
[42] = test system: UO-31 renal
[43] = test system: NCI-H226 lung
[44] = test system: NCI-H460 lung
[45] = test system: NCI-H522 lung
[46] = test system: HCT-116 colon
[47] = test system: NCI/ADR-RES ovarian
[48] = test system: A549 NSCLC
[49] = test system: SF-295 CNS
[50] = test system: OVCAR-3 ovarian
[51] = test system: HOP-62 NSCLC
[52] = test system: RPMI-8226 leukemia
[53] = test system: A498 renal
[54] = test system: KM12 colon
[55] = test system: IGROV1 ovarian
[56] = test system: SF-539 CNS
[57] = test system: BT-549 breast
[58] = test system: HL-60(TB) leukemia
[59] = test system: MALME-3M melanoma

C=CC(C)(C)C(=C)C(=O)N(C)c1ccccc1I
TGI [1]: > 100 µM | TGI [2]: > 100 µM | TGI [3]: > 100 µM | TGI [4]: > 100 µM | TGI [5]: > 100 µM | TGI [6]: > 100 µM | TGI [7]: > 100 µM | TGI [8]: > 100 µM | TGI [9]: > 100 µM | TGI [10]: > 100 µM | TGI [11]: > 100 µM | TGI [12]: > 100 µM | TGI [13]: > 100 µM | TGI [14]: > 100 µM | TGI [15]: > 100 µM | TGI [16]: > 100 µM | TGI [17]: > 100 µM | TGI [18]: > 100 µM | TGI [19]: > 100 µM | TGI [20]: > 100 µM | TGI [21]: > 100 µM | TGI [22]: > 100 µM | TGI [23]: > 100 µM | TGI [24]: > 100 µM | TGI [25]: > 100 µM | TGI [26]: > 100 µM | TGI [27]: > 100 µM | TGI [28]: > 100 µM | TGI [29]: > 100 µM | TGI [30]: > 100 µM | TGI [31]: > 100 µM | TGI [32]: > 100 µM | TGI [33]: > 100 µM | TGI [34]: > 100 µM | TGI [35]: > 100 µM | TGI [36]: > 100 µM | TGI [37]: > 100 µM | TGI [38]: > 100 µM | TGI [39]: > 100 µM | TGI [40]: > 100 µM | TGI [41]: > 100 µM | TGI [42]: > 100 µM | TGI [43]: > 100 µM | TGI [44]: > 100 µM | TGI [45]: > 100 µM | TGI [46]: > 100 µM | TGI [47]: > 100 µM | TGI [48]: > 100 µM | TGI [49]: > 100 µM | TGI [50]: > 100 µM | TGI [51]: > 100 µM | TGI [52]: > 100 µM | TGI [53]: > 100 µM | TGI [54]: > 100 µM

CS(=O)(=O)c1ccc(-c2cnc(N)c(C(=O)Nc3ccccc3)n2)cc1
GI50 [55]: 5.17 µM | TGI [55]: > 100 µM | GI50 [1]: 98.6 µM | TGI [1]: > 100 µM | GI50 [2]: 31.7 µM | TGI [2]: > 100 µM | GI50 [3]: 2.39 µM | TGI [3]: > 100 µM | GI50 [4]: > 43 µM | TGI [4]: > 100 µM | GI50 [56]: 6.81 µM | TGI [56]: > 100 µM | GI50 [5]: 5.92 µM | TGI [5]: > 100 µM | GI50 [6]: 6.81 µM | TGI [6]: > 100 µM | GI50 [7]: 4.96 µM | TGI [7]: > 55.8 µM | GI50 [8]: 8.35 µM | TGI [8]: > 100 µM | GI50 [9]: > 81.5 µM | TGI [9]: > 100 µM | GI50 [10]: 3.9 µM | TGI [10]: > 100 µM | GI50 [11]: > 100 µM | TGI [11]: > 100 µM | GI50 [12]: 5.34 µM | TGI [12]: > 100 µM | GI50 [13]: > 67.6 µM | TGI [13]: > 100 µM | GI50 [14]: > 100 µM | TGI [14]: > 100 µM | GI50 [15]: > 51.9 µM | TGI [15]: > 100 µM | GI50 [16]: > 92.3 µM | TGI [16]: > 100 µM | GI50 [17]: 7.87 µM | TGI [17]: > 96 µM | GI50 [18]: 28.7 µM | TGI [18]: > 100 µM | GI50 [19]: > 45 µM | TGI [19]: > 100 µM | GI50 [20]: 3.71 µM | TGI [20]: > 100 µM | GI50 [22]: 3.4 µM | TGI [22]: > 100 µM | GI50 [23]: > 100 µM | TGI [23]: > 100 µM | GI50 [24]: 10.8 µM | TGI [24]: > 100 µM | GI50 [25]: 25 µM | TGI [25]: > 100 µM | GI50 [26]: 16.9 µM | TGI [26]: > 100 µM | GI50 [27]: 7.22 µM | TGI [27]: > 100 µM | GI50 [28]: 24.3 µM | TGI [28]: > 100 µM | GI50 [29]: 2.69 µM | TGI [29]: > 50.1 µM | GI50 [30]: > 100 µM | TGI [30]: > 100 µM | GI50 [31]: > 100 µM | TGI [31]: > 100 µM | GI50 [32]: 4 µM | TGI [32]: > 100 µM | GI50 [33]: 4.84 µM | TGI [33]: > 100 µM | GI50 [34]: > 100 µM | TGI [34]: > 100 µM | GI50 [35]: 3.92 µM | TGI [35]: 29.6 µM | GI50 [36]: 9.86 µM | TGI [36]: > 100 µM | GI50 [37]: > 100 µM | TGI [37]: > 100 µM | GI50 [38]: 7.5 µM | TGI [38]: > 100 µM | GI50 [39]: 4.2 µM | TGI [39]: > 100 µM | GI50 [40]: 20.7 µM | TGI [40]: > 100 µM | GI50 [57]: 7.87 µM | TGI [57]: 40.8 µM | GI50 [41]: 6.85 µM | TGI [41]: > 100 µM | GI50 [42]: 5.45 µM | TGI [42]: > 42.8 µM | GI50 [43]: > 100 µM | TGI [43]: > 100 µM | GI50 [58]: 5.62 µM | TGI [58]: > 100 µM | GI50 [44]: 10.7 µM | TGI [44]: > 100 µM | GI50 [45]: > 54.8 µM | TGI [45]: > 100 µM | GI50 [46]: 11.4 µM | TGI [46]: > 100 µM | GI50 [47]: 22.6 µM | TGI [47]: > 100 µM | GI50 [48]: > 24.2 µM | TGI [48]: > 100 µM | GI50 [59]: > 100 µM | TGI [59]: > 100 µM | GI50 [49]: 24.2 µM | TGI [49]: > 100 µM | GI50 [50]: 15.7 µM | TGI [50]: > 100 µM | GI50 [51]: 18.8 µM | TGI [51]: > 100 µM | GI50 [52]: > 100 µM | TGI [52]: > 100 µM | GI50 [53]: 6.59 µM | TGI [53]: > 100 µM | GI50 [54]: > 100 µM | TGI [54]: > 100 µM
